Test [1] concerns TβR-I and TβR-II. Description: 125I-TGF-β1 affinity labeling, CHO-K1 cells. Type of test: cell-based, Chinese hamster. The conditions noted are these: 1 μM, 37° C. 16 hr, 0.12 untreated. The method, then:
(§1) (A, B, C, D, E, F) Cells were treated with LDL (50 μg protein/ml), VLDL (5 μg protein/ml), HDL (50 μg protein/ml), lipoprotein (a) (10 μg/ml), fluvastatin (F; 1 μM), lovastatin (L; 1 μM), nystatin (Nys; 25 μg/ml), β-CD (β-CD; 8 mM), cholest-4-en-3-one (3-one; 50 μg/ml) or cholesterol (Chol; 50 μg/ml) alone or combination of two. After 1 hr at 37° C. or 16 hr at 37° C. (for fluvastatin and lovastatin), ^125I-TGF-β1 affinity labeling of cell-surface TGF-β receptors was performed at 0° C. ^125I-TGF-β1 affinity-labeled TβR-I and TβR-II were analyzed by 7.5% SDS-PAGE and autoradiography. The relative intensities of TβR-I and TβR-II were quantified with a PhosphoImager. The ratio of ^125I-TGF-β1 binding to TβR-II and TβR-I were estimated. The numbers above the lane sequence denote the ratio of TβR-II/TβR-I.
After cross-linking, cell lysates were analyzed by 7.5% SDS-PAGE and autoradiography or quantified by a PhosphoImager. For all experiments, cholesterol or cholesterol derivatives were prepared as the stock solution with a concentration of 25 mg/ml in ethanol. The final concentration of ethanol in the medium was 0.2% (by vol.). […]

The subject of test [2] is TβR-I and TβR-II. Description: 125I-TGF-β1 affinity labeling, BAEC. The format is cell-based, bovine. The conditions noted are these: 1 μM, 37° C. 16 hr; BAEC cells; 2.47 untreated. On the procedure: (§2) (B, C, D, E) Cells were treated with increasing concentrations of cholesterol in the presence (C) and absence (B, D, E) of 0.2% β-CD, as indicated. After 1 hr at 37° C., ^125I-TGF-β1 affinity labeling of TβR-I and TβR-II in cells was performed at 0° C. ^125I-TGF-β1 affinity-labeled TβR-I and TβR-II were analyzed by 7.5% SDS-PAGE and autoradiography or quantified with a PhosphoImager. A representative of a total of three analyses is shown (top). The bracket indicates the locations of ^125I-TGF-β affinity-labeled TβR-I and TβR-II. The relative intensities of ^125I-TGF-β1 affinity-labeled TβR-I and TβR-II in cells treated without cholesterol were taken as 100%. The quantitative data from three analyses is shown (bottom).
as §1
(§3) After cross-linking, cell lysates were analyzed by 7.5% SDS-PAGE and autoradiography or quantified by a PhosphoImager. For all experiments, cholesterol or cholesterol derivatives were prepared as the stock solution with a concentration of 25 mg/ml in ethanol. The final concentration of ethanol in the medium was 0.2% (by vol.).

Test [3] relates to TβR-I and TβR-II. Description: Western blot of TβR-I and TβR-II protein levels, Mv1Lu cells. Type of test: cell-based, mink. The conditions noted are these: 37° C. for 16 hr; versus cholesterol-treated and control cells. (In general: A western blot detects proteins with antibodies after separation by electrophoresis.)
Protocol: Cells grown to near confluence on 12-well cluster dishes were treated with cholesterol or LDL in serum-free DMEM (vol.=0.5 ml/well) at 37° C. for 1 hr. The treated cells were further incubated with 50 or 100 pM TGF-β1 at 37° C. for 30 min (for determining Smad2 phosphorylation) or for 2 hr (for determining TβR-II). Treated cells were lysed and cell lysates were analyzed by 7.5% SDS-PAGE and Western blot analysis using anti-Smad2, anti-P-Smad2, anti-caveolin-1, anti-TβR-I (alk5) or anti-TβR-II antibodies as described previously (30). The antigens on the blots were visualized by using horseradish peroxidase-conjugated anti-rabbit IgG antibody and the ECL system as described (30).
To determine if cholesterol suppresses TGF-β responsiveness by decreasing the ratio of TGF-β1 binding to TβR-II and TβR-I, we first determined the time course of the effect of cholesterol treatment on the ratio of ^125I-TGF-β1 binding to TβR-II and TβR-I in Mv1Lu cells. These cells were treated with 50 μg/ml cholesterol at 37° C. for several time periods. ^125I-TGF-β1 binding to TGF-β receptors was then determined by affinity labeling using the bifunctional cross-linking agent DSS (disuccinimidyl suberate) followed by 7.5% SDS-PAGE and autoradiography or quantified with a PhosphoImager. […] We then performed analysis of the effect of cholesterol treatment on TGF-β1 binding to TβR-I and TβR-II in several cell types. Mv1Lu, BAEC, and NRK cells were treated for 1 hr with increasing concentrations of cholesterol in the presence and absence of 0.2% β-cyclodextrin (β-CD, which forms water-soluble complexes with cholesterol) at 37° C. The binding of TGF-β1 to TβR-I and TβR-II in these cells was then determined by ^125I-TGF-β1 affinity labeling at 0° C.
Test [4] has as its system TβR-I and TβR-II. Briefly: 125I-TGF-β1 affinity labeling, Mv1Lu cells. Type of test: cell-based, mink. The settings on record: 1 μM, 37° C. 16 hr; Mv1Lu cells; 0.88 untreated. On the procedure: (A) Mv1Lu cells were treated with 50 μg/ml cholesterol at 37° C. After several time periods, as indicated, ^125I-TGF-β1-affinity labeling was performed at 0° C. ^125I-TGF-β1 affinity-labeled TGF-β receptors were analyzed by 7.5% SDS-PAGE and autoradiography (a) and quantified with a PhosphoImager. The bracket indicates the locations of ^125I-TGF-β1 affinity-labeled TβR-I and TβR-II. The ratio of ^125I-TGF-β1 binding to TβR-II and TβR-I is plotted against incubation time (b).
as §2
The bracket indicates the locations of ^125I-TGF-β1 affinity-labeled TβR-I and TβR-II. The relative intensities of ^125I-TGF-β1-TβR-I and ^125I-TGF-β1-TβR-II complexes, which were quantified with a PhosphoImager, are plotted against TGF-β1 concentrations (bottom).
as §1
(G) Mv1Lu cells were treated with 50 μg/ml of cholesterol and cholesterol analogs/derivatives including 25-hydroxycholesterol, 7-dehydrocholesterol (7-DHC), 7-ketocholesterol, 7β, 8β-epoxycholesterol, 7β-hydroxycholesterol, and oxidized 7-dehydrocholesterol (oxy-7DHC). After 1 hr at 37° C., ^125I-TGF-β1 affinity labeling of TGF-β receptors was performed. ^125I-TGF-β1 affinity-labeled TβR-I and TβR-II were analyzed by 7.5% SDS-PAGE and autoradiography. The bracket indicates the locations of ^125I-TGF-β1-affinity-labeled TβR-I and TβR-II. The relative intensities of ^125I-TGF-β1 affinity-labeled TβR-I and TβR-II were determined by a PhosphoImager. The ratios of ^125I-TGF-β1 binding to TβR-II and TβR-I were estimated. The numbers above the lane sequence denote the ratio of TβR-II/TβR-I.
as §3

The next test has as its system PAI-1 expression. Description: TGF-β1-induced PAI-1 expression, Northern blot, Mv1Lu cells. The format is cell-based, mink. The conditions noted are these: Mv1Lu cells. On the procedure: (A, B, C, D, E, F) Cells were treated with 50 μg/ml cholesterol (A, B, C, D) and 50 μg/ml LDL (D) at 37° C. for 1 hr or with 1 μM fluvastatin or lovastatin (E) or several concentrations of fluvastatin (F) at 37° C. for 16 hr and then further incubated with increasing concentrations (as indicated) of TGF-β1 (A, B, C, E) or 50 pM TGF-β1 (D,F) for 2 hr. Northern blot analysis of PAI-1 and G3PDH was performed. A representative of a total of three analyses is shown (a). The relative intensities of the transcripts were quantified with a PhosphoImager. The ratio of the relative intensities of PAI-1 and G3PDH transcripts in cells treated without TGF-β1 and cholesterol, LDL or statins on the blot was taken as 1 fold or 100% of PAI-1 expression. The quantitative data from three independent analyses is shown (b). […] (G) Mv1Lu cells stably expressing a luciferase reporter gene driven by the PAI-1 promoter (MLECs-clone 32) were treated with increasing concentrations (as indicated) of cholesterol at 37 EC for 1 hr (a) or with 1 μM lovastatin at 37° C. for 16 hr (b) and then further incubated with 50 pM TGF-β for 7 hr. The luciferase activity in cells treated without cholesterol was taken as 100% (a). […] (H) Cells were incubated with 0.0625 and 0.125 pM TGF-β1 in the presence of increasing concentrations of cholesterol, as indicated. […] The experiments were carried out in triplicate.

Molecules are shown by their SMILES.

Broadly, the EC50 is the midpoint of the concentration-response curve. Take `CC(C)n1c(/C=C/C(O)CC(O)CC(=O)O)c(-c2ccc(F)cc2)c2ccccc21` (stereo not drawn) [fluvastatin, reference compound]: the “ratio of TβR-II/TβR-I” value with TβR-I and TβR-II [1] is listed as 0.19; with TβR-I and TβR-II [2], 2.91; in the test on TβR-I and TβR-II [4] it was 1.3. Also, in the test with TβR-I and TβR-II [3], the “increase of the total amount of TβR-II” value was roughly 1.5 fold. Also, the “enhancement of PAI-1 expression” value in the test with PAI-1 expression (1 μM, 16 hr, 10 pM TGF-β1) came to 3 fold. Besides, the EC50 in the test with PAI-1 expression (stimulated by 50 pM TGF-β1, read-out: EC50 of enhancement of PAI-1 expression) is 500 nM.

The values are drawn from patent US8946201B2, “Methods for inhibiting TGF-β” (Saint Louis University, priority 2007, dated 2015).
